In PMC6320956, “O-Aminoalkyl-O-Trimethyl-2,3-Dehydrosilybins: Synthesis and In Vitro Effects Towards Prostate Cancer Cells” (Molecules, 2018):

Experiments:
Assay type in all cases: cell-based, human
PC-3 cells = experiment: WST-1 cell proliferation assay, PC-3; settings: for IC50: Homo sapiens, PC-3, 72 h, WST-1, three days of exposure, mean ± SD, n = 3; for IC50 (Silibinin)/IC50(Derivative) PC-3: fold potency relative to silibinin
Description: (§1) The in vitro antiproliferative activities of six 7-O-substituted and 26 3-O-substituted silybin derivatives were evaluated using the WST-1 cell proliferation assay, according to the procedure as described in the Experimental Section in both androgen-sensitive (LNCaP) and androgen-insensitive (PC-3 and DU145) human prostate cancer cell lines. Silibinin and docetaxel were used as a positive control for comparison in the parallel experiments and the IC50 values calculated from the dose-response curves are summarized in Table 1. […] A three-carbon linker in 11 and 29, as well as a five-carbon linker in 31, 37 and 40, are beneficial to the potency.
(§2) All cell lines were initially purchased from American Type Culture Collection (ATCC^TM) (Manassas, VA, USA). The PC-3 and LNCaP prostate cancer cell lines were routinely cultured in RPIM-1640 medium supplemented with 10% FBS and 1% penicillin/streptomycin. The DU145 prostate cancer cells were routinely cultured in Eagle’s Minimum Essential Medium (EMEM) supplemented with 10% FBS and 1% penicillin/streptomycin. Cultures were maintained in a high humidity environment supplemented with 5% carbon dioxide at a temperature of 37 °C.
(§3) PC-3, DU145, or LNCaP cells were plated in 96-well plates at a density of 3,200 per well in 200 µL of culture medium. The cells were then separately treated with silibinin, or synthesized silibinin derivatives, at five different doses for three days, while equal treatment volumes of DMSO (0.25%) were used as the vehicle control. The cells were cultured in a CO2 incubator at 37 °C for three days. A total of 10 µL of the premixed WST-1 cell proliferation reagent (Clontech) was added to each well. After mixing gently for one min on an orbital shaker, the cells were incubated for an additional 3 h at 37 °C. To ensure a homogeneous distribution of color, it is important to mix gently on an orbital shaker for one min. The absorbance of each well was measured using a microplate reader (Synergy HT, BioTek, Winooski, VT, USA) at a wavelength of 430 nm. […] For calculating the IC50 values, a linear proliferative inhibition was made based on at least five dosages for each compound.

DU145 cells = experiment: WST-1 cell proliferation assay, DU145; settings: for IC50: Homo sapiens, DU-145, 72 h, WST-1, three days of exposure, mean ± SD, n = 3; for IC50 (Silibinin)/IC50(Derivative) DU145: fold potency relative to silibinin
Description: as §1, §2, §3

LNCaP cells = experiment: WST-1 cell proliferation assay, LNCaP; settings: for IC50: Homo sapiens, LNCaP, 72 h, WST-1, three days of exposure, mean ± SD, n = 3; for IC50 (Silibinin)/IC50(Derivative) LNCaP: fold potency relative to silibinin
Description: as §1, §2, §3

| IC50 (PC-3 cells) | IC50 (Silibinin)/IC50(Derivative) PC-3 (PC-3 cells) | IC50 (DU145 cells) | IC50 (Silibinin)/IC50(Derivative) DU145 (DU145 cells) | IC50 (LNCaP cells) | IC50 (Silibinin)/IC50(Derivative) LNCaP (LNCaP cells) | Compound |
| --- | --- | --- | --- | --- | --- | --- |
| 9.92 ± 0.43 µM | 7 | 8.62 ± 0.32 µM | 11 | 7.49 ± 0.16 µM | 6 | CCN(CC)CCCOc1cc(OC)c2c(=O)c(OC)c(-c3ccc4c(c3)OC(c3ccc(OC)c(OC)c3)C(CO)O4)oc2c1 (stereo not drawn) [Compound 10] |
| 25.1 ± 1 µM | 3 | 19.6 ± 0.47 µM | 5 | 11 ± 0.99 µM | 4 | COc1ccc(C2Oc3cc(-c4oc5cc(OCCCN6CCCC6)cc(OC)c5c(=O)c4OC)ccc3OC2CO)cc1OC (stereo not drawn) [Compound 12] |
| 26.5 ± 1 µM | 3 | 45.1 ± 11.5 µM | 2 | 12.7 ± 6.28 µM | 3 | COc1ccc(C2Oc3cc(-c4oc5cc(OCCCN6CCOCC6)cc(OC)c5c(=O)c4OC)ccc3OC2CO)cc1OC (stereo not drawn) [Compound 13] |
| 25.7 ± 3.39 µM | 3 | 19.4 ± 0.88 µM | 5 | 16.4 ± 3.47 µM | 3 | COc1ccc(C2Oc3cc(-c4oc5cc(OCCCN6CCN(C)CC6)cc(OC)c5c(=O)c4OC)ccc3OC2CO)cc1OC (stereo not drawn) [Compound 14] |
| 5.76 ± 1.36 µM | 13 | 8.13 ± 0.42 µM | 11 | 5.19 ± 2.08 µM | 8 | COc1cc(OC)c2c(=O)c(OCCCCCBr)c(-c3ccc4c(c3)OC(c3ccc(OC)c(OC)c3)C(CO)O4)oc2c1 (stereo not drawn) [Compound 19] |
| 9.09 ± 1.48 µM | 8 | 32.7 ± 5.32 µM | 3 | 20.7 ± 5.34 µM | 2 | COc1cc(OC)c2c(=O)c(OCCCN(C)C)c(-c3ccc4c(c3)OC(c3ccc(OC)c(OC)c3)C(CO)O4)oc2c1 (stereo not drawn) [Compound 20, 3-O-(N,N-Dimethylamino)propyl-5,7,20-O-trimethyl-2,3-dehydrosilybin] |
| 5.15 ± 2.13 µM | 14 | 9.97 ± 3.34 µM | 9 | 5.13 ± 0.89 µM | 9 | COc1cc(OC)c2c(=O)c(OCCCCN(C)C)c(-c3ccc4c(c3)OC(c3ccc(OC)c(OC)c3)C(CO)O4)oc2c1 (stereo not drawn) [Compound 21] |
| 3.47 ± 2.23 µM | 21 | 6.73 ± 0.45 µM | 14 | 5.07 ± 0.52 µM | 9 | COc1cc(OC)c2c(=O)c(OCCCCCN(C)C)c(-c3ccc4c(c3)OC(c3ccc(OC)c(OC)c3)C(CO)O4)oc2c1 (stereo not drawn) [Compound 22] |
| 5.16 ± 0.94 µM | 14 | 9.21 ± 0.37 µM | 10 | 3.09 ± 0.15 µM | 14 | CCN(CC)CCCOc1c(-c2ccc3c(c2)OC(c2ccc(OC)c(OC)c2)C(CO)O3)oc2cc(OC)cc(OC)c2c1=O (stereo not drawn) [Compound 23] |
| 5.76 ± 1.36 µM | 11 | 8.18 ± 0.42 µM | 8 | 5.19 ± 2.08 µM | 13 | CCN(CC)CCCCOc1c(-c2ccc3c(c2)OC(c2ccc(OC)c(OC)c2)C(CO)O3)oc2cc(OC)cc(OC)c2c1=O (stereo not drawn) [Compound 24] |
| 6.41 ± 0.4 µM | 11 | 6.64 ± 0.54 µM | 14 | 6.33 ± 0.34 µM | 7 | CCN(CC)CCCCCOc1c(-c2ccc3c(c2)OC(c2ccc(OC)c(OC)c2)C(CO)O3)oc2cc(OC)cc(OC)c2c1=O (stereo not drawn) [Compound 25] |
| 2.03 ± 0.69 µM | 36 | 8.39 ± 1.38 µM | 11 | 3.89 ± 0.54 µM | 11 | CCCN(CCC)CCCOc1c(-c2ccc3c(c2)OC(c2ccc(OC)c(OC)c2)C(CO)O3)oc2cc(OC)cc(OC)c2c1=O (stereo not drawn) [Compound 26] |
| 3.77 ± 0.41 µM | 19 | 5.39 ± 0.53 µM | 17 | 4.02 ± 1.55 µM | 11 | CCCN(CCC)CCCCOc1c(-c2ccc3c(c2)OC(c2ccc(OC)c(OC)c2)C(CO)O3)oc2cc(OC)cc(OC)c2c1=O (stereo not drawn) [Compound 27] |
| 3.3 ± 0.86 µM | 22 | 5.78 ± 1.36 µM | 16 | 2.7 ± 0.47 µM | 16 | CCCN(CCC)CCCCCOc1c(-c2ccc3c(c2)OC(c2ccc(OC)c(OC)c2)C(CO)O3)oc2cc(OC)cc(OC)c2c1=O (stereo not drawn) [Compound 28] |
| 3.77 ± 0.41 µM | 19 | 3.07 ± 0.51 µM | 30 | 3.84 ± 0.51 µM | 11 | CCCCN(CCCC)CCCCOc1c(-c2ccc3c(c2)OC(c2ccc(OC)c(OC)c2)C(CO)O3)oc2cc(OC)cc(OC)c2c1=O (stereo not drawn) [Compound 30] |
| 2.86 ± 0.79 µM | 25 | 14.1 ± 2.79 µM | 7 | 5.89 ± 0.3 µM | 7 | COc1cc(OC)c2c(=O)c(OCCCN3CCCC3)c(-c3ccc4c(c3)OC(c3ccc(OC)c(OC)c3)C(CO)O4)oc2c1 (stereo not drawn) [Compound 32] |
| 7.49 ± 1.98 µM | 10 | 19.8 ± 2.38 µM | 5 | 8.06 ± 1.44 µM | 5 | COc1cc(OC)c2c(=O)c(OCCCCN3CCCC3)c(-c3ccc4c(c3)OC(c3ccc(OC)c(OC)c3)C(CO)O4)oc2c1 (stereo not drawn) [Compound 33] |
| 2.95 ± 0.76 µM | 25 | 5.9 ± 1.3 µM | 16 | 3.92 ± 1.67 µM | 11 | COc1cc(OC)c2c(=O)c(OCCCCCN3CCCC3)c(-c3ccc4c(c3)OC(c3ccc(OC)c(OC)c3)C(CO)O4)oc2c1 (stereo not drawn) [Compound 34] |
| 2.37 ± 0.7 µM | 31 | 7.26 ± 1.12 µM | 13 | 2.28 ± 0.42 µM | 19 | COc1cc(OC)c2c(=O)c(OCCCN3CCCCC3)c(-c3ccc4c(c3)OC(c3ccc(OC)c(OC)c3)C(CO)O4)oc2c1 (stereo not drawn) [Compound 35] |
| 24.1 ± 10.6 µM | 3 | 67 ± 13.7 µM | 1 | 27.3 ± 5.42 µM | 2 | COc1cc(OC)c2c(=O)c(OCCCCN3CCCCC3)c(-c3ccc4c(c3)OC(c3ccc(OC)c(OC)c3)C(CO)O4)oc2c1 (stereo not drawn) [Compound 36] |
| 2.94 ± 0.13 µM | 25 | 10.6 ± 0.63 µM | 9 | 1.74 ± 0.97 µM | 25 | COc1cc(OC)c2c(=O)c(OCCCN3CCOCC3)c(-c3ccc4c(c3)OC(c3ccc(OC)c(OC)c3)C(CO)O4)oc2c1 (stereo not drawn) [Compound 38] |
| 3.49 ± 0.24 µM | 21 | 6.36 ± 0.37 µM | 15 | 2.84 ± 0.22 µM | 15 | COc1cc(OC)c2c(=O)c(OCCCCN3CCOCC3)c(-c3ccc4c(c3)OC(c3ccc(OC)c(OC)c3)C(CO)O4)oc2c1 (stereo not drawn) [Compound 39] |
| 9.98 ± 4.94 µM | 7 | > 50 µM | <2 | 11.4 ± 5.91 µM | 4 | COc1cc(OC)c2c(=O)c(OCCCN3CCNCC3)c(-c3ccc4c(c3)OC(c3ccc(OC)c(OC)c3)C(CO)O4)oc2c1 (stereo not drawn) [Compound 41] |
| 5.3 ± 0.66 µM | 14 | 6.85 ± 0.77 µM | 14 | 4.58 ± 1.77 µM | 10 | COc1cc(OC)c2c(=O)c(OCCCCN3CCNCC3)c(-c3ccc4c(c3)OC(c3ccc(OC)c(OC)c3)C(CO)O4)oc2c1 (stereo not drawn) [Compound 42] |
| 7.87 ± 1.47 µM | 9 | 48.1 ± 16.3 µM | 2 | 14.4 ± 7.49 µM | 3 | COc1cc(OC)c2c(=O)c(OCCCCCN3CCNCC3)c(-c3ccc4c(c3)OC(c3ccc(OC)c(OC)c3)C(CO)O4)oc2c1 (stereo not drawn) [Compound 43] |
